Entries after “also recorded” stand apart in the source; their conditions may differ.
Test system: COVID-19 pseudovirus
Parameters: species or system COVID-19 (SARS-CoV-2)

O=[O+][O-] [ozone]
inactivation of COVID-19 pseudovirus: almost completely inactivated; also recorded: complete inactivation

Reference: patent US12600988B2, “Coronavirus pseudovirus packaging system, packaging method therefor, and application of coronavirus pseudovirus in evaluating disinfection efficacy” (priority 2020, dated 2026)
